Reference: patent US20050165218A1, “Crystal structure of the ligand binding domain of the retinoic acid-related orphan receptor alpha (ror-alpha)” (priority 2002, published 2005)
Counter-ions that a name gives are not always drawn.

How the values were obtained:
RORα [1] = biological target: T1, RORα (Homo sapiens, UniProt P35398); assay: RORE reporter transcription in cells partially depleted of cholesterol (HPCD plus lovastatin, LDL-free serum); details: for fold induction at 10 µM: read-out: Fold induction (ROR alpha transcriptional activity); for Transcription of the RORE reporter in response to compound (in words): HPCD and lovastatin treated cells, compared to vehicle
T1 sequence (P35398 1-556 isoform P35398-1): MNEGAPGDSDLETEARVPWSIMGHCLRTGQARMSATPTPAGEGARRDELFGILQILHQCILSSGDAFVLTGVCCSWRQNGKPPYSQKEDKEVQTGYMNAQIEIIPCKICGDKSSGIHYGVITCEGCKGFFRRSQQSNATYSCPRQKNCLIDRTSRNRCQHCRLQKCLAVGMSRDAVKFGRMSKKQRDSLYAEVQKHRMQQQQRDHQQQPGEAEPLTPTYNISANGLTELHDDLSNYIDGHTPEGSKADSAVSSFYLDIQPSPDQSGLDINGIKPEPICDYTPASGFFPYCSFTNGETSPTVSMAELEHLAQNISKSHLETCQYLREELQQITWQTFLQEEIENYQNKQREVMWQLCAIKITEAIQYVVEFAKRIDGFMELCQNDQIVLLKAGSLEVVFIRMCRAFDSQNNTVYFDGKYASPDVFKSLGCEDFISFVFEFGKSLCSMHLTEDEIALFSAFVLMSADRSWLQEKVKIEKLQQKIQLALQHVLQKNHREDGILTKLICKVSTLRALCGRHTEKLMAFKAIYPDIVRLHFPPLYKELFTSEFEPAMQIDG
Text: We next establish whether in eukaryotic cells partially depleted of cholesterol, RORα transcriptional activity can be reconstituted by addition of cholesterol. We therefore treat the cells with hydroxypropyl-β-cyclodextrin (HPCD), a cyclodextrin derivative known to function as a cholesterol shuttle. HPCD treatment is used in experiments aiming at the partial depletion of intracellular cholesterol. In order to prevent an increase of intracellular cholesterol through the activation of the mevalonate pathway, cells are also treated with lovastatin while they are fed with a medium containing LDL-free serum.

RORα-LBD = biological target: T2, RORα-LBD (Homo sapiens, UniProt P35398); assay: Ligand exchange screening by mass spectrometry (ESI Q-Tof, non-covalent complexes); type: binding; details: for Displacement of cholesterol bound to the ROR-LBD (mass spectrometry): 10-fold molar excess of ligand, overnight at 4° C., protein 135 μM
T2 construct: (His)6RORα-LBD269-556 is produced in Sf9 cells; (His)6 (N); made in house; host or cells: Sf9 insect cells
T2 sequence (P35398 269-556 isoform P35398-1): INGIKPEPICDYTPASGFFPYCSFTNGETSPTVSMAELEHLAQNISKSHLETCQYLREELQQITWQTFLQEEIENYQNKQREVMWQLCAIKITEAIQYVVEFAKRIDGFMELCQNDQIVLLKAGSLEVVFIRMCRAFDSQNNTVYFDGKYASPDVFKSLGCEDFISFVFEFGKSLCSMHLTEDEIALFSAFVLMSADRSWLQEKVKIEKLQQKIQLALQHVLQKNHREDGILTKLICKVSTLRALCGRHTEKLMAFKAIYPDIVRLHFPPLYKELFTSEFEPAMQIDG
Method: (His)6RORα-LBD269-556 is produced in Sf9 cells and purified by Ni-NTA chromatography followed by size exclusion chromatography. The protein in Tris-HCl buffer at a concentration of 135 μM is incubated overnight at 4° C., with a 10-fold molar excess of 25-hydroxycholesterol (5-cholesten-3beta, 25-diol) or cholesterol sulfate (5-cholesten-3beta-ol-sulfate). Prior to mass spectrometry analysis, the protein is subjected to fast buffer exchange in 50 mM ammonium acetate pH 7.0 by size exclusion chromatography using disposable Centri∘Spin 20 columns (Princeton Separations, Adelphia, N.J.) according to manufacturer′s instructions. Mass spectrometry is carried out using a Q-Tof (Micromass, Manchester, UK) quadrupole time-of-flight hybrid tandem mass spectrometer equipped with a Micromass Z-type electrospray ionization source (ESI). The acquisition mass range is typically m/z 1500-4500 in 5 seconds. The mass spectrometer is tuned in order to allow detection of multiply-charged species of non-covalent complexes. The source block temperature and desolvation temperature are kept at 50° C. and 80° C., respectively. Sample cone voltage (Vc) is set to 23 volts for standard measurements. In-source induced fragmentation experiments are performed by increasing Vc up to 100 volts. The protein solution is infused at a flow rate of 10 μl/min. Data are recorded and processed using Masslynx software. Spectra are deconvoluted using MaxEnt analysis software (Micromass, Manchester, UK).
Generation of the construct (His)6RORα-LBD270-523, fermentation and purification are done as described above. […] The resulting solution is incubated overnight at 37° C. and further purified by size exclusion chromatography on a SPX75 column, before concentrating to 17.6 mg/ml for crystallization trials. MS determination of the native complex is done as described previously (Kallen et al., Structure, Vol.10, 1697-1707, 2002). A control experiment is done by incubating the same amount of RORα LBD protein with 5% DMSO under identical conditions. The protein concentration is approximately 15 μM in 50 mM AcONH4, pH 7.0. Both spectra are recorded under identical conditions with Vc=20 volts.

RORα [2] = biological target: T1, RORα; assay: Screen of cholesterol derivatives for binding of RORα to the RORE in essentially cholesterol-free medium; details: baculovirus-expressed RORα
Text: The substances identified by rational design can be further analyzed in drug screening assay. The drug screening assays of the present invention may use any of a number of assays for measuring the functionality of RORα, including for the ability of RORα following ligand binding to transcriptionally regulate a gene, by increasing phosphorylation of RORα, by allowing RORα to dimerize or to heterodimerize with another nuclear receptor, by improving its ability to interact with co-activators, by changing its conformation and by increasing its ability to bind DNA. In one binding assay, a nucleic acid containing a RORα binding site is placed on a coated or onto a solid support. A preferred binding site is a response element (RORE) composed of a 6 bp AT rich motif immediately preceding a half site AGGTCA and the possible variants of this response element that are given in Giguere et al. 1994, Genes & Development 8:538-553, Mc Broom et al. 1995 Mol.Cell. Biol. 15: 796-808, Moraitis & Giguere, 1999; Molecular Endocrinology. 13:431-439. Methods for placing the nucleic acid on the solid support are well known in the art and include linking biotin to the nucleic acid and linking avidin to the solid support. The RORα is allowed to equilibrate with the nucleic acid and drugs are tested to see if they disrupt or enhance the binding. […]

RORα [3] = biological target: T1, RORα; assay: RORE-tk-luc luciferase reporter assay in U2OS cells in essentially sterol free medium, fluvastatin treatment; type: cell-based
Method: Mammalian cells receive cholesterol by uptake from lipoproteins (LDL-cholesterol) and are able to synthesize cholesterol through the mevalonate pathway. In a situation where cells are cultured under conditions essentially sterol free, a key transcription factor, SREBP will be proteolytically cleaved and this releases a transcription factor to the nucleus. This transcription factor is able to transcriptionally activate HMG-CoA reductase, which is a critical step in the cholesterol biosynthesis through the mevalonate pathway. Statins, which are know drugs for hypercholesterol state are specific inhibitors of the HMG-CoA reductase. When cells are cultivated in sterol free medium, their HMG-CoA reductase is strongly activated. In this experiment cells, cultivated in medium essentially sterol free, are treated with fluvastatin. […] U2OS cells are transfected with expression vector for RORα (ROR) together with a luciferase reporter gene bearing a consensus response element for RORα (RORE-tk-luc). Luciferase activity is assayed in cells from 6 well plates and related to the activity in cells transfected with or without treatment with fluvastatin. The results are normalized to the protein content.

[4] = compounds 10 μM, cells treated with HPCD and lovastatin, LDL-free serum, control = 1

Row | SMILES | fold induction at 10 µM (RORα [1]) | Transcription of the RORE reporter in response to compound (in words) (RORα [1]) | Fold induction (ROR alpha transcriptional activity) (RORα [1]; 10 µM) | other results
1 | CC(C)CCC[C@@H](C)[C@H]1CC[C@H]2[C@@H]3CC=C4C[C@@H](OS(=O)(=O)O)CC[C@]4(C)[C@H]3CC[C@]12C [Chol. Sulfate, 5-cholesten-3beta-ol-sulfate] | 5.4 | – | – | Exchange of cholesterol by cholesterol-sulfate, MS-analysis (RORα-LBD; 1.0 mM ligand, 73 μM (His)6RORαLBD270-523, overnight at 37° C.): confirmed by MS-analysis; Displacement of cholesterol bound to the ROR-LBD (mass spectrometry) (RORα-LBD; listed as cholesterol sulfate): able to fully displace cholesterol; Displacement of cholesterol bound to the ROR-LBD (mass spectrometry) (RORα-LBD; listed as cholesterol-sulfate): could be exchanged with cholesterol-sulfate; Stability of ligand/ROR-LBD complex versus in-source collisions at various cone-voltages (RORα-LBD; compared with apo-ROR-LBD, Vc up to 100 volts): more stable; Displacement of cholesterol (RORα binding to RORE screen) (RORα [2]): able to displace cholesterol
2 | CC(C)CCC[C@@H](C)[C@H]1CC[C@H]2[C@@H]3CC=C4C[C@@H](O)CC[C@]4(C)[C@H]3CC[C@]12C [Cholesterol, cholest-5-en-3beta-ol] | 3.3 | stimulated | – | –
3 | CC(C)n1c(/C=C/C(O)CC(O)CC(=O)O)c(-c2ccc(F)cc2)c2ccccc21 (stereo not shown) [Fluvastatin] | – | – | – | fold induction at 5 µM (RORα [3]; fluvastatin +5 μM, paired control 76, read-out: Fold induction (RORα transcriptional activity, luciferase)): 48; fold induction at 10 µM (RORα [3]; fluvastatin +10 μM, paired control 93, read-out: Fold induction (RORα transcriptional activity, luciferase)): 38
4 | CC(C)CCC[C@@H](C)[C@H]1CC[C@H]2C3=CC=C4C[C@@H](O)CC[C@]4(C)[C@H]3CC[C@]12C [7-Dehydrochol, 7-Dehydrocholesterol] | – | – | – | Fold induction (ROR alpha transcriptional activity) (RORα [1]; [4]): 4.6
5 | CC(C)CCC[C@@H](C)[C@H]1CC[C@H]2[C@@H]3CC[C@H]4C[C@@H](O)CC[C@]4(C)[C@H]3CC[C@]12C [Cholestanol] | – | stimulated | – | Fold induction (ROR alpha transcriptional activity) (RORα [1]; [4]): 2.4
6 | CCC(CC[C@@H](C)[C@H]1CC[C@H]2[C@@H]3CC=C4C[C@@H](OC(C)=O)CC[C@]4(C)[C@H]3CC[C@]12C)C(C)C (stereo partly drawn) [5-Cholesten-24beta, 5-Cholesten-24β-ethyl-3β-ol acetate] | – | does not trigger any increase | 1 | –
7 | C[C@H](CCCC(C)(C)O)[C@H]1CC[C@H]2[C@@H]3CC=C4C[C@@H](O)CC[C@]4(C)[C@H]3CC[C@]12C [25-OH-Chol, 5-cholesten-3beta, 25-diol] | 1.6 | – | – | Displacement of cholesterol bound to the ROR-LBD (mass spectrometry) (RORα-LBD): able to fully displace cholesterol
8 | C[C@@H](CO)CCC[C@@H](C)[C@H]1CC[C@H]2[C@@H]3CC=C4C[C@@H](O)CC[C@]4(C)[C@H]3CC[C@]12C [27-OH-Chol] | – | – | 1.5 | –
9 | CC(C)CCC[C@](C)(O)[C@H]1CC[C@H]2[C@@H]3CC=C4C[C@@H](O)CC[C@]4(C)[C@H]3CC[C@@]21C [20(S)-OH-Chol] | – | – | 1.2 | –
10 | CC(C)CCC[C@@H](C)[C@H]1CC[C@H]2[C@@H]3CC=C4C[C@H](O)CC[C@]4(C)[C@H]3CC[C@]12C [Epicholesterol, 5-Cholesten-3α-ol] | 2.8 | stimulated | – | –
11 | CC(C)CC[C@@H](O)[C@@H](C)[C@H]1CC[C@H]2[C@@H]3CC=C4C[C@@H](O)CC[C@]4(C)[C@H]3CC[C@]12C [22(R)-OH-Chol] | – | – | 1.2 | –
